# Data taken from paper PMC9495854, “Novel Phenothiazine/Donepezil-like Hybrids Endowed with Antioxidant Activity for a Multi-Target Approach to the Therapy of Alzheimer’s Disease” (Antioxidants, 2022).
# Marks after values point to notes of the source that are not given here.
# Key:
# hBChE = biological target: T1, hBChE (Homo sapiens, UniProt P06276); experiment: biochemical; details: mean ± SEM
# T1 construct: purchased
# Method: The experiments were carried out using a properly modified version of Ellman’s spectrophotometric assay, adapted to a 96-well plate procedure. All reagents, including enzymes, were purchased from common suppliers. Incubation of the proper enzyme with the single compound at different concentrations was performed in clear flat-bottomed, 96-well plates (Greiner Bio-One GmbH, Frickenhausen, Germany) and in duplicate. […] Fluorescence measures were carried out using Tecan Infinite M1000 Pro multiplate reader (Tecan, Cernusco S.N., Italy). IC50 values and inhibition values were calculated as the mean of three independent experiments and are expressed as mean ± SEM [13].
# SH-SY5Y cells [1] = experiment: DCFH-DA cell-based antioxidant assay (H2O2-induced oxidation), SH-SY5Y; details: Homo sapiens, SHSY-5Y, 1 h compound, 100 μM H2O2, read-out: DCFDH-DA IC50 ± SEM SHSY-5Y
# Method: (§1) HepG2 cells were cultured in Eagle’s Minimum Essential Medium (MEM, Euroclone S.p.A., Pero, MI, Italy), supplemented with 10% Fetal Bovine Serum (FBS, Euroclone S.p.A., Pero, MI, Italy), 1% L-glutamine (Euroclone S.p.A., Pero, MI, Italy), 100 U/mL penicillin/streptomycin (Euroclone S.p.A., Pero, MI, Italy), 1% Non-Essential Amino Acids (NEAA, Euroclone S.p.A., Pero, MI, Italy). SH-SY5Y cells were grown in a 1:1 mixture of Dulbecco’s modified Eagle’s medium (DMEM)—high glucose (Euroclone S.p.A., Pero, MI, Italy) and Ham’s F12 Medium (Euroclone S.p.A., Pero, MI, Italy) supplemented with 10% FBS, 1% L-glutamine and 100 U/mL penicillin/streptomycin. For cell assays, cells were trypsinized using Trypsin-EDTA 1X in PBS (Euroclone S.p.A., Pero, MI, Italy).
# (§2) According to a slightly modified procedure already reported in the literature, the generation of ROS was determined using an oxidation-sensitive fluorescent probe, 2′,7′-dichlorodihydrofluorescein diacetate (DCFH-DA, D6665; Sigma-Aldrich, St. Louis, MO, USA). Briefly, viable cells were seeded in a black 96-well cell culture plate (Costar, Sigma-Aldrich, St. Louis, MO, USA) and after 24 h were incubated with different concentrations (0.1–100 µM) of each compound for 1 h at 37 °C in 5% CO2. […] After washing using PBS, 100 μM H2O2 in medium without serum was added to each well and the cells were incubated for an additional 30 min. The formation of fluorescent dichlorofluorescein (DCF) due to oxidation of DCFH in the presence of ROS, was read at 530 nm using a microplate reader Tecan Infinite M1000 Pro (Tecan, Cernusco S.N., Italy) and DMSO medium was used for control cells. The results are expressed as mean ± SEM of at least three independent measurements in triplicate.
# [2] = MTT cell viability assay, SH-SY5Y; type: cell-based; details: human, SH-SY5Y cells, SHSY-5Y; for IC50 at 1 h: 1 h exposure; for IC50 at 24 h: 24 h exposure, read-out: MTT cytotoxicity IC50 ± SEM SHSY-5Y 24 h
# Method: as §1, with “Human hepatocellular liver carcinoma (HepG2) cell line and human neuroblastoma cell line, SH-SY5Y, were purchased from the American Type Culture Collection (ATCC, Manassas, VA, USA) and maintained at 37 °C in a humidified atmosphere (95% air and 5% carbon dioxide), and they were periodically screened for contamination. HepG2” for “HepG2”
# (§3) HepG2 and SH-SY5Y cell viability was assessed as previously reported by using a conventional 3-(4,5-dimethylthiazol-2-yl)-2,5-diphenyltetrazolium bromide (MTT) assay. In brief, viable cells were seeded and grown for 24 h into a sterile 96-well cell culture cluster (Corning, Sigma-Aldrich, St. Louis, MO, USA) in a complete medium and maintained at 37 °C in a humidified atmosphere with 5% CO2. The cells were then added with different concentrations of each compound for a period of 1 h or 24 h. At the end, the culture medium was replaced by a solution of 0.5 mg/mL MTT (Sigma-Aldrich, St. Louis, MO, USA) in PBS. After 2 h of incubation at 37 °C in 5% CO2, the supernatant was carefully removed from each well, and the formazan crystals were dissolved in DMSO. The absorbance values were measured at 570 nm using Tecan Infinite M1000 Pro (Tecan, Cernusco S.N., Italy) and DMSO medium as blank solution. The results were reported as % cell viability = [optical density (OD) of tested compound/medium OD of control cells] × 100. The results are expressed as mean ± SEM of at least three independent measurements in triplicate.
# Aβ1-40 aggregation = biological target: T2, Aβ1-40 aggregation (Homo sapiens, UniProt P05067); experiment: Inhibition of Aβ40 aggregation, ThT fluorescence; type: biochemical; details: inhibitor 10 µM, Aβ40 30 µM, PBS pH 7.4, 2% HFIP, 2 h 25 °C, mean ± SEM; for inhibition at 10 µM: read-out: Aβ1-40 Aggregation (I% at 10 µM)
# T2 construct: purchased EZBiolab
# Method: ThT fluorescence in the presence of Aβ was measured for each compound according a previously described procedure. The samples were co-incubated and mixed in 96-well black, non-binding microplates (Greiner Bio-One GmbH, Frickenhausen, Germany), incubating Aβ40 (EZBiolab, Carmel, IN, USA) at a final concentration of 30 µM with each inhibitors at a final concentration of 10 µM in PBS (pH 7.4) containing 2% 1,1,1,3,3,3-hexafluoro-2-propanol (HFIP). After 2 h at 25 °C, a 25 µM ThT solution was added and fluorescence was determined using the multi-plate reader Tecan Infinite M1000 Pro (Tecan, Cernusco S.N., Italy). The results are reported as mean of three independent experiments ± SEM [13].
# HepG2 cells = experiment: DCFH-DA cell-based antioxidant assay (H2O2-induced oxidation), HepG2; details: Homo sapiens, 1 h compound, 100 μM H2O2, read-out: DCFDH-DA IC50 ± SEM HepG2
# Method: as §1, §2
# SH-SY5Y cells [3] = experiment: MTT cell viability assay, SH-SY5Y; type: cell-based; details: 24 h exposure
# Method: as §1, with “Human hepatocellular liver carcinoma (HepG2) cell line and human neuroblastoma cell line, SH-SY5Y, were purchased from the American Type Culture Collection (ATCC, Manassas, VA, USA) and maintained at 37 °C in a humidified atmosphere (95% air and 5% carbon dioxide), and they were periodically screened for contamination. HepG2” for “HepG2”
# as §3
# T2 sequence (P05067 672-711 limits assumed): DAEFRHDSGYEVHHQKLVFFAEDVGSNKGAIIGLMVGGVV
# T1 sequence (P06276 29-602): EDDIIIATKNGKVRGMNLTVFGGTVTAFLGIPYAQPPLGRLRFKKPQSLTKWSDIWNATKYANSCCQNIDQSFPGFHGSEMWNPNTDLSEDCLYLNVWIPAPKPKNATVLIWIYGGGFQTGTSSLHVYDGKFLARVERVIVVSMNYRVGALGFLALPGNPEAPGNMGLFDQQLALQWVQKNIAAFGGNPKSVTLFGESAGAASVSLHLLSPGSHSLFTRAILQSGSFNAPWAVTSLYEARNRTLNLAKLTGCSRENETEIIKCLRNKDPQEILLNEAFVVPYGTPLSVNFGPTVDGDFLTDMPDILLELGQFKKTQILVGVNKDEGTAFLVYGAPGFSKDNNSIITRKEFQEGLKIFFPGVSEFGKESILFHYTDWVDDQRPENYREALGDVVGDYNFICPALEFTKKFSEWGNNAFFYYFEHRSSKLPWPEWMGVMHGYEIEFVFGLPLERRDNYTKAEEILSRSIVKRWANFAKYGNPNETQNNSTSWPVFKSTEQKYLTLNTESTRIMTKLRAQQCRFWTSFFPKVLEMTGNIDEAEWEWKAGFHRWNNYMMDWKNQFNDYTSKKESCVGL
SMILES,IC50 (hBChE) [µM],IC50 (SH-SY5Y cells [1]) [µM],IC50 at 1 h [2] [µM],IC50 at 24 h [2] [µM],inhibition at 10 µM (Aβ1-40 aggregation) [%],IC50 (HepG2 cells) [µM],hBChE I% at 10 µM (hBChE; inhibition at 10 µM),MTT cytotoxicity IC50 ± SEM SHSY-5Y 24 h (SH-SY5Y cells [3]),Aβ1-40 Aggregation (I% at 10 µM) (Aβ1-40 aggregation)
"O=C(NCC1CCN(Cc2ccccc2)CC1)c1ccc2c(c1)Nc1ccccc1S2 [Compound 11a, N-((1-Benzylpiperidin-4-yl)methyl)-10H-phenothiazine-2-carboxamide]",2.16 ± 0.27,14.1 ± 0.6,> 100,> 100,8,8.31 ± 1.4,,,
"O=C(NCC1CCN(Cc2ccccc2Cl)CC1)c1ccc2c(c1)Nc1ccccc1S2 [Compound 11b, N-((1-(2-Chlorobenzyl)piperidin-4-yl)methyl)-10H-phenothiazine-2-carboxamide]",1.98 ± 0.12,1.32 ± 0.2,> 100,21.2 ± 1,20,55.3 ± 1.1,,,
"Cc1ccccc1CN1CCC(CNC(=O)c2ccc3c(c2)Nc2ccccc2S3)CC1 [Compound 11c, N-((1-(2-Methylbenzyl)piperidin-4-yl)methyl)-10H-phenothiazine-2-carboxamide]",1.47 ± 0.03,2.11 ± 0.4,> 100,15.2 ± 1.2,47,17.6 ± 0.5,,,
"O=C(NCC1CCN(Cc2ccccc2F)CC1)c1ccc2c(c1)Nc1ccccc1S2 [Compound 11d, N-((1-(2-Fluorobenzyl)piperidin-4-yl)methyl)-10H-phenothiazine-2-carboxamide]",1.2 ± 0.01,1.43 ± 0.5,> 100,9.33 ± 0.86,43,1.82 ± 0.6,,,
"COc1cccc(CN2CCC(CNC(=O)c3ccc4c(c3)Nc3ccccc3S4)CC2)c1 [Compound 11e, N-((1-(3-Methoxybenzyl)piperidin-4-yl)methyl)-10H-phenothiazine-2-carboxamide]",,1.12 ± 0.9,> 100,29 ± 1.1,24,3.21 ± 0.5,47% ± 1 ^b,,
"O=C(NCCN1CCN(Cc2ccccc2)CC1)c1ccc2c(c1)Nc1ccccc1S2 [Compound 12a, N-(2-(4-Benzylpiperazin-1-yl)ethyl)-10H-phenothiazine-2-carboxamide]",2.02 ± 0.03,2.01 ± 0.61,> 100,> 100,43,1.13 ± 0.41,,,
"O=C(NCCN1CCN(Cc2ccccc2Cl)CC1)c1ccc2c(c1)Nc1ccccc1S2 [Compound 12b, N-(2-(4-(2-Chlorobenzyl)piperazin-1-yl)ethyl)-10H-phenothiazine-2-carboxamide]",,9.1 ± 1.42,> 100,31.8 ± 2,27,18.7 ± 0.2,,,
"Cc1ccccc1CN1CCN(CCNC(=O)c2ccc3c(c2)Nc2ccccc2S3)CC1 [Compound 12c, N-(2-(4-(2-Methylbenzyl)piperazin-1-yl)ethyl)-10H-phenothiazine-2-carboxamide]",2.5 ± 0.06,11.3 ± 0.21,> 100,> 100,,4.21 ± 0.81,,,
"O=C(NCCN1CCN(Cc2ccccc2F)CC1)c1ccc2c(c1)Nc1ccccc1S2 [Compound 12d, N-(2-(4-(2-Fluorobenzyl)piperazin-1-yl)ethyl)-10H-phenothiazine-2-carboxamide]",4.33 ± 0.19,11.7 ± 1.11,> 100,> 100,60,14.6 ± 0.5,,no cytotoxic effects,
"CC(=O)N1c2ccccc2Sc2ccc(C(=O)NCCN3CCN(Cc4ccccc4Cl)CC3)cc21 [Compound 13, 10-Acetyl-N-(2-(4-(2-chlorobenzyl)piperazin-1-yl)ethyl)-10H-phenothiazine-2-carboxamide]",,1.22 ± 0.2,> 100,55.3 ± 1.22,,0.63 ± 0.1,,,lack of activity
